Test results published in PubChem BioAssay AID248 (DTP/NCI, 2004).
Toxic doses and inconclusive results are not listed.

System: L1210 leukemia ip in BDF1 mice, survival T/C
Test: NCI In Vivo Anticancer Drug Screen. Data for tumor model L1210 Leukemia (intraperitoneal) in B6D2F1 (BDF1) mice
Conditions: endpoint: mean survival time, higher = longer survival
Outline: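 Survival endpoint. Drug-treated group vs vehicle group, expressed as T divided by C. Tumor passaged by transplantation.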

[1] = dose: 25.0 mg/kg/injection, schedule: Q04DX002 (ip), vehicle: Klucel (hydroxypropylcellulose) (HPC)
[2] = dose: 50.0 mg/kg/injection, schedule: Q01DX009 (ip), vehicle: Klucel (hydroxypropylcellulose) (HPC)
[3] = dose: 50.0 mg/kg/injection, schedule: Q04DX002 (ip), vehicle: Klucel (hydroxypropylcellulose) (HPC)
[4] = dose: 100.0 mg/kg/injection, schedule: Q01DX009 (ip), vehicle: Klucel (hydroxypropylcellulose) (HPC)
[5] = dose: 100.0 mg/kg/injection, schedule: Q04DX002 (ip), vehicle: Klucel (hydroxypropylcellulose) (HPC)
[6] = dose: 100.0 mg/kg/injection, schedule: Q01DX001 (ip), vehicle: saline
[7] = dose: 200.0 mg/kg/injection, schedule: Q01DX001 (ip), vehicle: saline
[8] = dose: 400.0 mg/kg/injection, schedule: Q01DX001 (ip), vehicle: saline
[9] = dose: 200.0 mg/kg/injection, schedule: Q01DX009 (ip), vehicle: Klucel (hydroxypropylcellulose) (HPC)
[10] = dose: 100.0 mg/kg/injection, schedule: Q01DX009 (ip), vehicle: saline with Tween-80
[11] = dose: 200.0 mg/kg/injection, schedule: Q01DX009 (ip), vehicle: saline with Tween-80
[12] = dose: 400.0 mg/kg/injection, schedule: Q01DX009 (ip), vehicle: saline with Tween-80
[13] = dose: 100.0 mg/kg/injection, schedule: Q01DX009 (ip), vehicle: saline
[14] = dose: 200.0 mg/kg/injection, schedule: Q01DX009 (ip), vehicle: saline
[15] = dose: 400.0 mg/kg/injection, schedule: Q01DX009 (ip), vehicle: saline
[16] = dose: 100.0 mg/kg/injection, schedule: Q01DX001 (ip), vehicle: carboxymethylcellulose (CMC)
[17] = dose: 200.0 mg/kg/injection, schedule: Q01DX001 (ip), vehicle: carboxymethylcellulose (CMC)
[18] = dose: 400.0 mg/kg/injection, schedule: Q01DX001 (ip), vehicle: carboxymethylcellulose (CMC)
[19] = dose: 400.0 mg/kg/injection, schedule: Q01DX009 (ip), vehicle: Klucel (hydroxypropylcellulose) (HPC)
[20] = dose: 100.0 mg/kg/injection, schedule: Q04DX002 (ip), vehicle: saline with Tween-80
[21] = dose: 200.0 mg/kg/injection, schedule: Q04DX002 (ip), vehicle: saline with Tween-80
[22] = dose: 100.0 mg/kg/injection, schedule: Q04DX003 (ip), vehicle: saline with Tween-80
[23] = dose: 200.0 mg/kg/injection, schedule: Q04DX003 (ip), vehicle: saline with Tween-80
[24] = dose: 400.0 mg/kg/injection, schedule: Q04DX003 (ip), vehicle: saline with Tween-80

CN(C)CCCC1(O)c2ccccc2Sc2cc(Cl)ccc21 (stereo unspecified)
T/C (dose: 25.0 mg/kg/injection, schedule: Q01DX009 (ip), vehicle: Klucel (hydroxypropylcellulose) (HPC)): 91 % of control | T/C [1]: 96 % of control | T/C [2]: 91 % of control | T/C [3]: 99 % of control | T/C [4]: 100 % of control | T/C [5]: 101 % of control | T/C (dose: 150.0 mg/kg/injection, schedule: Q01DX009 (ip), vehicle: Klucel (hydroxypropylcellulose) (HPC)): 97 % of control | T/C (dose: 225.0 mg/kg/injection, schedule: Q01DX009 (ip), vehicle: Klucel (hydroxypropylcellulose) (HPC)): 90 % of control

O=C(/C=C\c1ccccc1)NCCNC(=O)/C=C/c1ccccc1
T/C [6]: 105 % of control | T/C [7]: 94 % of control | T/C [8]: 108 % of control

CSc1nc2ccc(S(=O)(=O)O)cc2s1
T/C [2]: 104 % of control | T/C [4]: 96 % of control | T/C [9]: 97 % of control

COC(=O)c1cccc2ccc3ccccc3c12
T/C (dose: 75.0 mg/kg/injection, schedule: Q04DX003 (ip), vehicle: saline): 97 % of control | T/C (dose: 150.0 mg/kg/injection, schedule: Q04DX003 (ip), vehicle: saline): 103 % of control | T/C (dose: 300.0 mg/kg/injection, schedule: Q04DX003 (ip), vehicle: saline): 94 % of control

CC(=O)OC(CNCC(=O)O)C(Cl)(Cl)Cl (stereo unspecified)
T/C [10]: 90 % of control | T/C [11]: 95 % of control | T/C [12]: 97 % of control

O=C1OC(c2ccc([N+](=O)[O-])cc2)=N/C1=C\c1ccc(Cl)cc1
T/C [13]: 94 % of control | T/C (dose: 100.0 mg/kg/injection, schedule: Q04DX002 (ip), vehicle: saline): 89 % of control | T/C [14]: 91 % of control | T/C (dose: 200.0 mg/kg/injection, schedule: Q04DX002 (ip), vehicle: saline): 92 % of control | T/C [15]: 91 % of control | T/C (dose: 400.0 mg/kg/injection, schedule: Q04DX002 (ip), vehicle: saline): 92 % of control

CCCCCCCCCCCC(=O)NC(=S)Nc1cccc2ccccc12
T/C (dose: 100.0 mg/kg/injection, schedule: Q04DX003 (ip), vehicle: Klucel (hydroxypropylcellulose) (HPC)): 90 % of control | T/C (dose: 200.0 mg/kg/injection, schedule: Q04DX003 (ip), vehicle: Klucel (hydroxypropylcellulose) (HPC)): 97 % of control

Cc1ccc([N+](=O)[O-])cc1NC(=O)Oc1cc(=O)oc2ccccc12
T/C [5]: 104 % of control | T/C (dose: 200.0 mg/kg/injection, schedule: Q04DX002 (ip), vehicle: Klucel (hydroxypropylcellulose) (HPC)): 90 % of control | T/C (dose: 400.0 mg/kg/injection, schedule: Q04DX002 (ip), vehicle: Klucel (hydroxypropylcellulose) (HPC)): 93 % of control

CCCN(C(=O)CCl)c1ccccc1
T/C (dose: 12.5 mg/kg/injection, schedule: Q04DX002 (ip), vehicle: Klucel (hydroxypropylcellulose) (HPC)): 122 % of control | T/C [1]: 94 % of control | T/C [3]: 105 % of control

Cc1cc(=O)[nH]c2c(C)cccc12
T/C [16]: 93 % of control | T/C [6]: 95 % of control | T/C [4]: 104 % of control | T/C [17]: 104 % of control | T/C [7]: 98 % of control | T/C [9]: 108 % of control | T/C [18]: 98 % of control | T/C [8]: 87 % of control | T/C [19]: 105 % of control

O=S(=O)(c1ccccc1)n1c(C(O)c2cccnc2)cc2ccccc21 (stereo unspecified)
T/C [20]: 93 % of control | T/C [21]: 100 % of control | T/C (dose: 400.0 mg/kg/injection, schedule: Q04DX002 (ip), vehicle: saline with Tween-80): 90 % of control

Cc1cccc(=O)n1CCC#N
T/C [13]: 96 % of control | T/C (dose: 100.0 mg/kg/injection, schedule: Q04DX003 (ip), vehicle: saline): 101 % of control | T/C [14]: 106 % of control | T/C (dose: 200.0 mg/kg/injection, schedule: Q04DX003 (ip), vehicle: saline): 93 % of control | T/C [15]: 112 % of control | T/C (dose: 400.0 mg/kg/injection, schedule: Q04DX003 (ip), vehicle: saline): 106 % of control

C(=C(c1ccccc1)c1ccccc1)C1=NCCS1
T/C (dose: 50.0 mg/kg/injection, schedule: Q04DX002 (ip), vehicle: saline with Tween-80): 108 % of control | T/C (dose: 100.0 mg/kg/injection, schedule: Q03DX002 (ip), vehicle: saline with Tween-80): 98 % of control | T/C [20]: 101 % of control | T/C [21]: 104 % of control | T/C (dose: 400.0 mg/kg/injection, schedule: Q03DX002 (ip), vehicle: saline with Tween-80): 117 % of control

CC(C)(COC(=O)COc1ccc(Cl)cc1Cl)[N+](=O)[O-]
T/C [4]: 97 % of control | T/C [9]: 92 % of control

CCSC(SCC)C1OC(C)(C)OC1C1COC(C)(C)O1 (stereo unspecified)
T/C [16]: 103 % of control | T/C [22]: 96 % of control | T/C [17]: 103 % of control | T/C [23]: 94 % of control | T/C [18]: 103 % of control | T/C [24]: 91 % of control

CSC(N)=Nc1ccc(C(=O)O)cc1
T/C [10]: 105 % of control | T/C [11]: 112 % of control | T/C [12]: 97 % of control

O=C(CCc1ccc(C(=O)Nc2ccc(C3=NCCCN3)cc2)cc1)Nc1ccc(C2=NCCCN2)cc1
T/C (dose: 0.37 mg/kg/injection, schedule: Q01DX Z (ip), vehicle: water): 98 % of control | T/C (dose: 0.75 mg/kg/injection, schedule: Q01DX Z (ip), vehicle: water): 108 % of control | T/C (dose: 1.0 mg/kg/injection, schedule: Q01DX Z (ip), vehicle: water): 121 % of control | T/C (dose: 4.0 mg/kg/injection, schedule: Q01DX Z (ip), vehicle: water): 232 % of control | T/C (dose: 8.0 mg/kg/injection, schedule: Q01DX Z (ip), vehicle: water): 270 % of control | T/C (dose: 25.0 mg/kg/injection, schedule: Q01DX Z (oral), vehicle: water): 102 % of control | T/C (dose: 50.0 mg/kg/injection, schedule: Q01DX Z (oral), vehicle: water): 93 % of control | T/C (dose: 100.0 mg/kg/injection, schedule: Q01DX Z (oral), vehicle: water): 93 % of control | T/C (dose: 200.0 mg/kg/injection, schedule: Q01DX Z (oral), vehicle: water): 102 % of control

O=C(O)CCCCCCC1CCCC1=O (stereo unspecified)
T/C (dose: 100.0 mg/kg/injection, schedule: Q01DX009 (ip), vehicle: saline sonified): 97 % of control | T/C (dose: 200.0 mg/kg/injection, schedule: Q01DX009 (ip), vehicle: saline sonified): 91 % of control | T/C (dose: 400.0 mg/kg/injection, schedule: Q01DX009 (ip), vehicle: saline sonified): 97 % of control

O=C(COc1ccc(Cl)cc1Cl)OCCOCCOCCOCCOCCOCCOCCOCCOCCOCCOCCOCCOCCO
T/C [4]: 101 % of control | T/C [9]: 101 % of control | T/C [19]: 98 % of control

CCC1CC2CN3CCc4c([nH]c5ccccc45)C(C(=O)OC)(C2)C13 (stereo unspecified)
T/C (dose: 75.0 mg/kg/injection, schedule: Q01DX001 (ip), vehicle: other): 96 % of control | T/C (dose: 150.0 mg/kg/injection, schedule: Q01DX001 (ip), vehicle: other): 105 % of control

CCC(=O)OC1CC2(C)C(=CC1=O)CCC1C2CCC2(C)C(OC(=O)CC)CCC12 (stereo unspecified)
T/C [13]: 97 % of control | T/C [14]: 96 % of control | T/C [15]: 96 % of control

C/C=C/CC1(Cc2ccccc2)C(=O)NC(=S)NC1=O
T/C (dose: 10.0 mg/kg/injection, schedule: Q01DX001 (ip), vehicle: saline): 102 % of control | T/C (dose: 20.0 mg/kg/injection, schedule: Q01DX001 (ip), vehicle: saline): 111 % of control

CCCCCCCCOC(=O)Nc1ccc(S(=O)(=O)NC2CCCCC2)cc1
T/C [16]: 89 % of control | T/C [17]: 89 % of control | T/C [18]: 94 % of control

COc1ccc(C(=Cc2ccccc2Br)c2ccc(OC)cc2)cc1
T/C [10]: 102 % of control | T/C [22]: 106 % of control | T/C [11]: 98 % of control | T/C [23]: 98 % of control | T/C [12]: 93 % of control | T/C [24]: 92 % of control

COC(=O)C(=O)c1ccccc1
T/C [10]: 101 % of control | T/C [11]: 100 % of control | T/C [12]: 89 % of control

CCSC(SCC)C(C)=O
T/C (dose: 50.0 mg/kg/injection, schedule: Q01DX001 (ip), vehicle: saline): 92 % of control | T/C [6]: 108 % of control | T/C [7]: 94 % of control | T/C [8]: 89 % of control
